Data taken from paper PMC12130801, “Restoration of the Tumor Suppressor Function of Y220C-Mutant p53 by Rezatapopt, a Small-Molecule Reactivator” (Cancer Discovery, 2025).

What was measured:
p53 Y220C mutant = target: T1, p53 Y220C mutant (Homo sapiens, UniProt P04637, Y220C); assay: SPR (Biacore 8K); also thermal shift and TR-FRET DNA binding
T1 construct: gene TP53; Biotinylated DBD of p53-Y220C

T3M-4 = assay: cells; design: 5-day MTT proliferation assay, absorbance 570 nm, per cent viability of untreated cells, IC50 from XLfit; settings: T3M4, 120 h; 5-day MTT proliferation; read-out: PC14586 MTT IC50
Experimental: (§1) The antiproliferative activity of compounds was evaluated using the MTT (Sigma-Aldrich, Cat. # M5655-1G) assay in a 96-well plate format. Cells were seeded at an appropriate density depending on the growth rate in 96-well microtiter plates, and compounds were tested at eight concentrations with 2-fold serial dilutions. Antiproliferative activity was assessed 5 days later by the conversion of the tetrazolium dye MTT (1 mg/mL) into insoluble formazan by viable cells, which was dissolved in ethanol and measured by a microplate reader for absorbance with a wavelength of 570 nm and a reference wavelength of 650 nm. The results were presented as a percentage of the viability of untreated cells (control). The IC50 was determined from the regression of a plot of the logarithm of concentration versus percentage of viability by XLfit IDBS. The data presented thus far indicate that PC14586 is a potent and selective reactivator of p53-Y220C with strong antiproliferative effects driven by cell-cycle arrest. To further investigate the selectivity and effects on proliferation following treatment with PC14586, additional p53-Y220C, p53 hotspot mutant, and p53-WT cell lines were assessed in a 5-day 3-[4,5-dimethylthiazol-2-yl]-2,5-diphenyl tetrazolium bromide (MTT) assay. […] The less sensitive p53-Y220C cell lines, TE-8 and HCC1419, have an additional p53 mutation. In the case of TE-8, the secondary mutation, M237I, is in the DBD of p53 and has been reported to interfere with p53 DNA binding ([36]). The spectrum of sensitivity to our compounds in cell lines with additional p53 mutations may indicate that monitoring second-site mutations and patient responses could yield mechanistic insights and potential biomarkers.

SU.86.86 = assay: cells; design: 5-day MTT proliferation assay, absorbance 570 nm, per cent viability of untreated cells, IC50 from XLfit; settings: Homo sapiens, SU.86.86, 120 h; 5-day MTT proliferation; read-out: PC14586 MTT IC50
Experimental: as §1

A-431 = assay: cells; design: 5-day MTT proliferation assay, absorbance 570 nm, per cent viability of untreated cells, IC50 from XLfit; settings: Homo sapiens, A-431, 120 h; 5-day MTT proliferation; read-out: PC14586 MTT IC50
Experimental: as §1

TOV-112D = assay: cells; design: 5-day MTT proliferation assay, absorbance 570 nm, per cent viability of untreated cells, IC50 from XLfit; settings: Homo sapiens, TOV112D, 120 h; 5-day MTT proliferation; read-out: PC14586 MTT IC50
Experimental: as §1

NUGC-3 = assay: cells; design: 5-day MTT proliferation assay, absorbance 570 nm, per cent viability of untreated cells, IC50 from XLfit; settings: Homo sapiens, NUGC-3, 120 h; 5-day MTT proliferation; read-out: PC14586 MTT IC50
Experimental: as §1

SF-295 = assay: cells; design: 5-day MTT proliferation assay, absorbance 570 nm, per cent viability of untreated cells, IC50 from XLfit; settings: Homo sapiens, SF-295, 120 h; 5-day MTT proliferation; read-out: PC14586 MTT IC50
Experimental: as §1

MFE-296# = assay: cells; design: 5-day MTT proliferation assay, absorbance 570 nm, per cent viability of untreated cells, IC50 from XLfit; settings: Homo sapiens, MFE-296, 120 h; 5-day MTT proliferation; read-out: PC14586 MTT IC50
Experimental: as §1

HCT 116 = assay: cells; design: 5-day MTT proliferation assay, absorbance 570 nm, per cent viability of untreated cells, IC50 from XLfit; settings: Homo sapiens, HCT-116, 120 h; 5-day MTT proliferation; read-out: PC14586 MTT IC50
Experimental: as §1

EFE-184 = assay: cells; design: 5-day MTT proliferation assay, absorbance 570 nm, per cent viability of untreated cells, IC50 from XLfit; settings: Homo sapiens, EFE-184, 120 h; 5-day MTT proliferation; read-out: PC14586 MTT IC50
Experimental: as §1

SJSA-1 = assay: cells; design: 5-day MTT proliferation assay, absorbance 570 nm, per cent viability of untreated cells, IC50 from XLfit; settings: Homo sapiens, SJSA-1, 120 h; 5-day MTT proliferation; read-out: PC14586 MTT IC50
Experimental: as §1

TE-8# = assay: cells; design: 5-day MTT proliferation assay, absorbance 570 nm, per cent viability of untreated cells, IC50 from XLfit; settings: Homo sapiens, TE-8, 120 h; 5-day MTT proliferation; read-out: PC14586 MTT IC50
Experimental: as §1

HCC2935 = assay: cells; design: 5-day MTT proliferation assay, absorbance 570 nm, per cent viability of untreated cells, IC50 from XLfit; settings: Homo sapiens, HCC2935, 120 h; 5-day MTT proliferation; read-out: PC14586 MTT IC50
Experimental: as §1

HCC1419# = assay: cells; design: 5-day MTT proliferation assay, absorbance 570 nm, per cent viability of untreated cells, IC50 from XLfit; settings: Homo sapiens, HCC1419, 120 h; 5-day MTT proliferation; read-out: PC14586 MTT IC50
Experimental: as §1

C-33A = assay: cells; design: 5-day MTT proliferation assay, absorbance 570 nm, per cent viability of untreated cells, IC50 from XLfit; settings: Homo sapiens, C-33-A, 120 h; 5-day MTT proliferation; read-out: PC14586 MTT IC50
Experimental: as §1

SNU-NCC-19 = assay: cells; design: 5-day MTT proliferation assay, absorbance 570 nm, per cent viability of untreated cells, IC50 from XLfit; settings: 120 h; 5-day MTT proliferation; read-out: PC14586 MTT IC50
Experimental: as §1

BxPC-3 = assay: cells; design: 5-day MTT proliferation assay, absorbance 570 nm, per cent viability of untreated cells, IC50 from XLfit; settings: Homo sapiens, BXPC-3, 120 h; 5-day MTT proliferation; read-out: PC14586 MTT IC50
Experimental: as §1

HuH-7 = assay: cells; design: 5-day MTT proliferation assay, absorbance 570 nm, per cent viability of untreated cells, IC50 from XLfit; settings: Homo sapiens, Huh-7, 120 h; 5-day MTT proliferation; read-out: PC14586 MTT IC50
Experimental: as §1

KON = assay: cells; design: 5-day MTT proliferation assay, absorbance 570 nm, per cent viability of untreated cells, IC50 from XLfit; settings: 120 h; 5-day MTT proliferation; read-out: PC14586 MTT IC50
Experimental: as §1

NUGC-3_KO = assay: cells; design: 5-day MTT proliferation assay, absorbance 570 nm, per cent viability of untreated cells, IC50 from XLfit; settings: 120 h; 5-day MTT proliferation; read-out: PC14586 MTT IC50
Experimental: as §1

T1 sequence (P04637 94-312 limits assumed, stated change not applied): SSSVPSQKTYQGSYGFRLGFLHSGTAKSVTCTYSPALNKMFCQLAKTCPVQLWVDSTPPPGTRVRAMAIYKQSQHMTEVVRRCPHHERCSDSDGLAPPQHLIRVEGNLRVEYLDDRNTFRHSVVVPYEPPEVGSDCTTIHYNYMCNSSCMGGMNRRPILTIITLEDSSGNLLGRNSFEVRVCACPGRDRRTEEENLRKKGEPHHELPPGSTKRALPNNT

- IC50 (A-431): 13.8 µM
- IC50 (HCT 116): 19.3 µM
- IC50 (SJSA-1): > 20 µM
- IC50 (HCC2935): 0.4 µM
- IC50 (HCC1419#): 4.87 µM
- IC50 (SNU-NCC-19): 0.23 µM
- IC50 (BxPC-3): 0.33 µM
- IC50 (HuH-7): 0.49 µM
Structure (SMILES): CNC(=O)c1ccc(NCC#Cc2cc3c(N[C@@H]4CCN(C)C[C@@H]4F)cccc3n2CC(F)(F)F)c(OC)c1 [PC14586, rezatapopt]
- Kd (p53 Y220C mutant): PC14374 and PC14586 both have low nmol/L SC150 and SPR Kd
- IC50 (T3M-4): 1.81 µM
- IC50 (SU.86.86): 16.8 µM
- IC50 (TOV-112D): 13 µM
- IC50 (NUGC-3): 0.59 µM
- IC50 (SF-295): 11.2 µM
- IC50 (MFE-296#): 0.5 µM
- IC50 (EFE-184): 12.5 µM
- IC50 (TE-8#): 8.66 µM
- IC50 (C-33A): 18.5 µM
- IC50 (KON): 1.05 µM
- IC50 (NUGC-3_KO): 15.5 µM
